In patent US5302514A, “Maltooligoside derivative, reagent for determining α-amylase activity containing the same as effective ingredient and a process for determining the α-amylase activity using same” (Kikkoman Corporation, priority 1991, dated 1994):

Assays:
[1] = test system: human α-amylase (P:S=1:1); experiment: α-Amylase hydrolysis (increase in absorbance at 400 nm with coupled enzymes); format: biochemical; conditions: for Increase in absorbance for 2 minutes (corrected by the 0 IU/l of α-amylase activity): substrate solution 3.00 mM, 400 nm, 37° C., pH 7.0; for hydrolysis by α-amylase (in words): as understood from Tables 1 and 2
Method: Coupled enzyme solution was prepared by dissolving a commercially available α-glucosidase derived from yeast and a commercially available β-glucosidase derived from almond in a 50 mM phosphate buffer (pH=7.0) containing 40 mM NaCl and 2 mM MgCl2 to a concentration of 117 units/ml and 13 units/ml, respectively. As the commercially available α- and β-glucosidases, those available from Toyobo Co., Ltd. were used.
Standard α-amylase solutions were prepared by dissolving a commercially available human α-amylase (P:S=1:1) in purified water to a concentration of 0, 148, 284, 401 and 525 IU/l, respectively. As the commercially available human α-amylase, Calibzyme.AMY manufactured by International Reagents Corp. was employed. As for the activity of α-amylase, an amount of the enzyme which decomposes 1μ mol of (a commercially available) 2-chloro-4-nitrophenyl β-D-maltopentaoside at 37° C. for one minute was defined as 1 international unit (IU).
The substrate solution (a) was prepared by dissolving 2-chloro-4-nitorphenyl 6^5 -azido-6^5 -deoxy-β-D-maltopentaoside (referred to hereinafter as the substrate of the present invention) obtained in Example 3 in a 50 mM phosphate buffer (pH=7.0) containing 40 mM NaCl and 2 mM MgCl2 to a concentration of 3.00 mM.
The substrate solution (b) was prepared by dissolving 2-chloro-4-nitrophenyl 6^3 -azido-6^3 -deoxy-β-D-maltotrioside (referred to hereinafter as the reference substrate) obtained in the step (1) in a 50 mM phosphate buffer (pH=7.0) containing 40 mM NaCl and 2 mM MgCl2 to a concentration of 3.00 mM.
A coupled enzyme solution was prepared in the same manner as in the step (2) of Example 5.
α-amylase solutions were prepared in the same manner as in the step (3) of Example 5 by dissolving a commercially available human α-amylase (P:S=1:1) in purified water to a concentration of 0, 250 and 500 IU/l, respectively.
The coupled enzyme solution in an amount of 1.0 ml was added with stirring to 250 μl of the α-amylase solution, and the mixture was heated at 37° C. for one minute. Each of the substrate solution in an amount of 2.0 ml was added with stirring to the mixture, and the mixture was heated at 37° C. for 2 minutes before measuring the variation of the absorbance at 400 nm for 2 minutes.
2-chloro-4-nitrophenyl 5^5 -eno-4^5 -O-mesyl-β-D-maltopentaoside (referred to hereinafter as substrate of the present invention) obtained in Example 1 was dissolved in a 50 mM phosphate buffer (pH=7.0) containing 40 mM NaCl and 2 mM MgCl2 to a concentration of 3.00 mM.
2-chloro-4-nitrophenyl 5^3 -eno-4^3 -O-mesyl-β-D-maltotrioside(referred to hereinafter as reference substrate) obtained in the previous step (1) was dissolved in a 50 mM phosphate buffer (pH=7.0) containing 40 mM NaCl an 2 mM MgCl2 to a concentration of 3.00 mM.
α-amylase solutions were prepared in the same manner as in the step (5) of Example 7.
The variations of absorbance were measured in the same manner as in the step (6) of Example 7.

[2] = biological target: T1, amylase derived from human saliva (human S type α-amylase) (Homo sapiens, UniProt P0DUB6); experiment: Hydrolysis rate, S type α-amylase; format: biochemical; conditions: relative to hydrolysis rate of 3 mM G5CNP defined as 10, substrate 7-9 times the Km
T1 sequence (P0DUB6 16-511): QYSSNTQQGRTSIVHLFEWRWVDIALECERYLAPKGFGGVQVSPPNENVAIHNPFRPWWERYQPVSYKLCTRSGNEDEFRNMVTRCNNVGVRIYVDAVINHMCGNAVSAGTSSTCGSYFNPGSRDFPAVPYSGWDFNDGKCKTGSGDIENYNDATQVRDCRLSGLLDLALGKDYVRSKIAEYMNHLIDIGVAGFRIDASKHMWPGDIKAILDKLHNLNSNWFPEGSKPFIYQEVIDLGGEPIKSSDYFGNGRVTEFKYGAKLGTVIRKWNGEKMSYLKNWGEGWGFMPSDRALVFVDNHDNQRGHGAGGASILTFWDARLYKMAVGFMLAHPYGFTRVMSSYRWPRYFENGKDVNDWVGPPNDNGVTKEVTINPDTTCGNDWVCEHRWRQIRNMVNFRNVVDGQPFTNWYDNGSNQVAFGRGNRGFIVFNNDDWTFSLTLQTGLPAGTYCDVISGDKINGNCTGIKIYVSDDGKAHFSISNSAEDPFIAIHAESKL
Method: (§1) The coupled enzyme solution was prepared in the same manner as in the step (2) of Example 5.
(§2) Commercially available human P type and S type α-amylase solutions having a concentration of ca. 500 IU/l were prepared in the same manner as in the step (3) of Example 5.
(§3) With 250 μl of the α-amylase solution prepared in (iii) was mixed 1.0 ml of the coupled enzyme. The mixture was heated at 37° C. for 1 minute, and 2.0 ml of the substrate solution was added with stirring to the mixture. The variation of absorbance at 400 nm was measured for 2 minutes after heating the mixture at 37° C. for 2 minutes. The hydrolysis rate of each substrate, namely the variable absorbance per unit time was expressed with the relative values to the hydrolysis rate of 3 mM G5CNP (the reference substrate) which is defined as 10.
(§4) S: amylase derived from human saliva.

[3] = biological target: T1, amylase derived from human saliva (human S type α-amylase); experiment: Km value, S type α-amylase; format: biochemical; conditions: pH 7.0, 37° C., Lineweaver-Burk
Method: (§5) Km values, hydrolysis rate, water solubility and the patterns of action in the hydrolysis of the present substrates 2-chloro-4-nitrophenyl 5^5 -eno-4^5 -O-mesyl-β-D-maltopentaoside (EMG5CNP) and 2-chloro-4-nitrophenyl 6^5 -azido-6^5 -deoxy- β-D-maltopentaoside (ADG5CNP) obtained in Example were examined in accordance with the following methods.
(§6) Substrate solutions were prepared by dissolving in a 50 mM phosphate buffer (pH=7.0) containing 40 mM NaCl and 2 mM MgCl2 a substrate to 0.16, 0.32, 0.48, 0.64, 0.80 and 0.96 mM, respectively.
(§7) The Km value of each substrate solution was obtained by measuring the hydrolysis rate of the substrate in accordance with the same procedure as in the measurement of hydrolysis rate described below and roughly calculating the Lineweaver-Burk's reciprocal plot (see "Tanpaku-Kohso no Jikken-hou", ed. Takeichi Horio & Jinpei Yamashita, Nanko-do, 1981).
(§8) Each substrate was dissolved in a 50 mM phosphate buffer (pH=7.0) containing 40 mM NaCl and 2 mM MgCl2 to make three substrate solutions in a concentration of 0.8-1.6 times and three substrate solutions in a concentration of 1.6-3.2 times per the roughly calculated Km value in the aforementioned paragraph (ii).
(§9) The Km value was calculated in accordance with the same procedure as in the aforementioned paragraph (ii).
as §4

[4] = biological target: T2, amylase derived from human pancreatic juice (human P type α-amylase) (Homo sapiens, UniProt P04746); experiment: Km value, P type α-amylase; format: biochemical; conditions: pH 7.0, 37° C., Lineweaver-Burk
T2 sequence (P04746 16-511): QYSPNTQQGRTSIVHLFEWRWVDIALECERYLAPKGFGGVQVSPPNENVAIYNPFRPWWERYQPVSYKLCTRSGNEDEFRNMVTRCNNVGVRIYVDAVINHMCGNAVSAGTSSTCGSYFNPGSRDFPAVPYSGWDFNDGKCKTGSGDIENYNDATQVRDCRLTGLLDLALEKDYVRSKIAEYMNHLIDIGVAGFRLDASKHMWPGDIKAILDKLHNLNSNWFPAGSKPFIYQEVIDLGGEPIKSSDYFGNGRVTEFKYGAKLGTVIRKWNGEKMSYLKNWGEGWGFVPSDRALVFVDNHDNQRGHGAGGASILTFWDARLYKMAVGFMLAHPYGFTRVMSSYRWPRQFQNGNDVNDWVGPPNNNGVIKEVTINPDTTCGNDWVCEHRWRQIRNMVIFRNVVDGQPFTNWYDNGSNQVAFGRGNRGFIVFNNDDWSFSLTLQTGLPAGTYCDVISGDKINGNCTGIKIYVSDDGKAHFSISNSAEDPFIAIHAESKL
Method: as §5, §6, §7, §8, §9
(§10) P: amylase derived from human pancreatic juice, […]

Solubility in water = format: physicochemical; conditions: 20 g of substrate added to 100 ml of water
Method: To 100 ml of water was added 20 g of a substrate, and the dissolution state was observed.

[5] = biological target: T2, amylase derived from human pancreatic juice (human P type α-amylase); experiment: Hydrolysis rate, P type α-amylase; format: biochemical; conditions: relative to hydrolysis rate of 3 mM G5CNP defined as 10, substrate 7-9 times the Km
Method: as §1, §2, §3, §10

[6] = biological target: T1, amylase derived from human saliva (human S type α-amylase); experiment: Patterns of action (hydrolyzed product by HPLC), S type α-amylase; format: biochemical; conditions: 0.5 mM substrate, 37° C., 20 minutes
Method: as §2
(§11) To 1.0 ml of the substrate solution was added 100 μl of the α-amylase solution prepared in the paragraph (iii) of the aforementioned hydrolysis rate, and the mixture, after stirred sufficiently, was subjected to reaction at 37° C. for 20 minutes. The hydrolyzed product was determined quantitatively by the high performance liquid chromatography of the reaction mixture.
as §4

[7] = biological target: T2, amylase derived from human pancreatic juice (human P type α-amylase); experiment: Patterns of action (hydrolyzed product by HPLC), P type α-amylase; format: biochemical; conditions: 0.5 mM substrate, 37° C., 20 minutes
Method: as §2, §11, §10

SMILES	Increase in absorbance for 2 minutes (corrected by the 0 IU/l of α-amylase activity) ([1]; Table 2, α-amylase activity 250 IU/l)	Increase in absorbance for 2 minutes (corrected by the 0 IU/l of α-amylase activity) ([1]; Table 2, α-amylase activity 500 IU/l)	hydrolysis by α-amylase (in words) [1]	Increase in absorbance for 2 minutes (corrected by the 0 IU/l of α-amylase activity) ([1]; Table 1, α-amylase activity 250 IU/l)	Increase in absorbance for 2 minutes (corrected by the 0 IU/l of α-amylase activity) ([1]; Table 1, α-amylase activity 500 IU/l)	Hydrolysis rate [2]	Km [3] [µM]	Km [4] [µM]	Solubility in water (Solubility in water)	Hydrolysis rate [5]	Patterns of action, hydrolyzed product G2CNP [6] [mol %]	Patterns of action, hydrolyzed product G3CNP [6] [mol %]	Patterns of action, hydrolyzed product G4CNP [6] [mol %]	Patterns of action, hydrolyzed product GCNP [6] [mol %]	Patterns of action, hydrolyzed product G2CNP [7] [mol %]	Patterns of action, hydrolyzed product G3CNP [7] [mol %]	Patterns of action, hydrolyzed product G4CNP [7] [mol %]	Patterns of action, hydrolyzed product GCNP [7] [mol %]
C=C1O[C@H](O[C@H]2[C@H](O)[C@@H](O)[C@@H](O[C@H]3[C@H](O)[C@@H](O)[C@H](Oc4ccc([N+](=O)[O-])cc4Cl)O[C@@H]3CO)O[C@@H]2CO)[C@H](O)[C@@H](O)[C@@H]1OS(C)(=O)=O [Substrate solution (b) (Table 2), 2-chloro-4-nitrophenyl 5^3-eno-4^3 -O-mesyl-β-D-maltotrioside, reference compound]	0.001	0.002	hardly hydrolyzed	–	–	–	–	–	–	–	–	–	–	–	–	–	–	–
[N-]=[N+]=NC[C@H]1O[C@H](O[C@H]2[C@H](O)[C@@H](O)[C@@H](O[C@H]3[C@H](O)[C@@H](O)[C@H](Oc4ccc([N+](=O)[O-])cc4Cl)O[C@@H]3CO)O[C@@H]2CO)[C@H](O)[C@@H](O)[C@@H]1O [Substrate solution (b) (Table 1), 2-chloro-4-nitrophenyl 6^3-azido-6^3-deoxy-β-D-maltotrioside, reference compound]	–	–	hardly hydrolyzed	0.002	0.005	–	–	–	–	–	–	–	–	–	–	–	–	–
O=[N+]([O-])c1ccc(O[C@@H]2O[C@H](CO)[C@@H](O[C@H]3O[C@H](CO)[C@@H](O[C@H]4O[C@H](CO)[C@@H](O[C@H]5O[C@H](CO)[C@@H](O[C@H]6O[C@H](CO)[C@@H](O)[C@H](O)[C@H]6O)[C@H](O)[C@H]5O)[C@H](O)[C@H]4O)[C@H](O)[C@H]3O)[C@H](O)[C@H]2O)c(Cl)c1 [Example G5CNP, 2-chloro-4-nitrophenylβ-D-maltopentaoside, reference compound]	–	–	–	–	–	10	370	290	Good	10	83	11	4	2	81	8	8	3
